According to patent US20140066385A1, “METHOD FOR TREATING CANCER BY COMBINED USE OF DRUGS” (Astellas Pharma Inc., priority 2011, published 2014):

Columns and labels:
[1] = target: inducible nitric oxide synthase (inducible NOS, iNOS) (Homo sapiens, UniProt P35228); details: reported in Non-Patent Document 1; cited from earlier work
[2] = tested on: human hormone-resistant prostatic cancer (PC-3); test: Example 10: FK330 with docetaxel in PC-3 tumor-bearing mice; format: in vivo, nude mice; details: FK330 100 mg/kg bid p.o. + docetaxel 10 mg/kg/day i.v. (2 days each cycle)
Procedure: The dose of FK330 is expressed in terms of the weight of a simple substance (non-hydrate). Docetaxel (a docetaxel hydrate injectable preparation (Taxotere (trademark), for intravenous infusion)) was purchased from Sanofi-Aventis SA, and was used as docetaxel.
FK330 was suspended (20 mg/mL) in a 0.5% aqueous methyl cellulose solution (0.5% MC), and was orally administered. Docetaxel was prepared to a concentration of 20 mg/mL with 95% ethanol, and then diluted to 1 mg/mL with physiological saline for injection (Otsuka Pharmaceutical Group) immediately before administration and intravenously administered through the tail vein.
Human hormone-resistant prostatic cancer-derived PC-3 (CRL-1435) was obtained from American Type Culture Collection (VA, USA). […]
The body weight and the tumor diameter, determined by using a digital caliper, were measured twice a week. The tumor volume was calculated from the calculation formula for ellipsoid volume of (major axis×[minor axis]^2×0.5).
The results are expressed as the mean value (Mean)±standard error (SEM). […] Using the actual measured values of the tumor volume at each measurement time point, an unpaired statistical test (Student's t-test) of the difference between two groups was carried out between a single administration group and a combined use group. […]

[3] = tested on: ischemia/reperfusion injury in rat liver transplantation; details: reported in Non-Patent Documents 3 and 4; cited from earlier work
[4] = tested on: chronic rejection, rat aorta transplantation; details: reported in Non-Patent Document 2; cited from earlier work

inducible nitric oxide synthase (inducible NOS, iNOS), sequence (P35228 whole entry): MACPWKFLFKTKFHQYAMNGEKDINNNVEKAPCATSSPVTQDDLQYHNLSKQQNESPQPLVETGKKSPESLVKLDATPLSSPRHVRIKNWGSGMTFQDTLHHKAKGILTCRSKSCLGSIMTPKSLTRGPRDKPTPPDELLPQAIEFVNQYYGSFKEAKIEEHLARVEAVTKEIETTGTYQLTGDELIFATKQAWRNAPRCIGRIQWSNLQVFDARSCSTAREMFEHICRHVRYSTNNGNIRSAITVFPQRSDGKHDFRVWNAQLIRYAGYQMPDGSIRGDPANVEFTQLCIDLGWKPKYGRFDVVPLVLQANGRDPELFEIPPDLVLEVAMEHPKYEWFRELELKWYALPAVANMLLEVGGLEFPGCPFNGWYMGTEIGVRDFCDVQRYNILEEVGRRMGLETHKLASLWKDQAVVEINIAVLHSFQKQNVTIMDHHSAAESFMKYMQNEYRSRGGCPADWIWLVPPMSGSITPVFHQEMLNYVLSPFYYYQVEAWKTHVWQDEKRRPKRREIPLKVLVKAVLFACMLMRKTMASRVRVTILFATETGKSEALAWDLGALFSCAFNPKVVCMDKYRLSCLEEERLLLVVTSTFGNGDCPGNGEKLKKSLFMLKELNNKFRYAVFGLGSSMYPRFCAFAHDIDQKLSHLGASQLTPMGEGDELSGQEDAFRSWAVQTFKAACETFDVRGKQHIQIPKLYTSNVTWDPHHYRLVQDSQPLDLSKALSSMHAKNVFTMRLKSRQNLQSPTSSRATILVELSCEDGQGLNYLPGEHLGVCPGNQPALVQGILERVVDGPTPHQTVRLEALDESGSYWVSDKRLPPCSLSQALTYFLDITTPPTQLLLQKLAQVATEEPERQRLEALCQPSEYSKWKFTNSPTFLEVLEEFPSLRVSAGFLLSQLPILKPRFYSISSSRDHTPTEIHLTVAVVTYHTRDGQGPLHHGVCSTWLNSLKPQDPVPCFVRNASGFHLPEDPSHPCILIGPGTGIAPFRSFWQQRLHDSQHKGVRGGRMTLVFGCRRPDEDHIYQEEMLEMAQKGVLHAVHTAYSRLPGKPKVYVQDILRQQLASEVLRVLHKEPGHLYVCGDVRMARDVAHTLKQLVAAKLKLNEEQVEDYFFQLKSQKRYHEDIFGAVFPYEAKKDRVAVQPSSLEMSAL

## O=C(/C=C/c1ccc(Cl)cc1)N[C@@H](Cc1ccccn1)C(=O)NCC(=O)N1CCC(Oc2cc(C(F)(F)F)ncn2)CC1 [FK330, N^2-[(2E)-3-(4-chlorophenyl)-2-propenoyl]-N-[2-oxo-2-(4-{[6-(trifluoromethyl)pyrimidin-4-yl]oxy}piperidin-1-yl)ethyl]-3-pyridin-2-yl-L-alaninamide]
[1]
  inducible nitric oxide synthase (iNOS) inhibitory activity: excellent
[2]; Day 27, P<0.062
  tumor volume reduction ratio compared with the docetaxel-only group: 49.3%
[2]; Day 51, P<0.05
  tumor volume reduction ratio compared with the docetaxel-only group: 42.0%
[3]
  efficacy for ischemia/reperfusion injury in rat liver transplantation: effective
[4]
  efficacy in chronic rejection model for rat aorta transplantation: effective
